Measured values: paper PMC7284125, “Identification of annotated bioactive molecules that impair motility of the blood fluke Schistosoma mansoni” (International Journal for Parasitology: Drugs and Drug …, 2020)
Where two headings read alike, the source gives them in different places.

Legend:
Type in all cases: cell-based, Schistosoma mansoni
[1] = tested on: S. mansoni schistosomulae; test: Phenotypic primary screen assay on schistosomulae (phenotype; viability by methylene blue dye exclusion); settings: for Viability (%) / Phenotype: three-day-old schistosomulae, 10 μM, 24 h; for Viability (%): calculated 5 days post compound exposure; for Phenotype: estimated 5 days post compound exposure
Procedure: Puerto Rican strain Biomphalaria glabrata snails infected with S. mansoni were kindly provided by Dr. Fred Lewis (Biomedical Research Institute and BEI Resources, MD, USA). Schistosomulae were obtained by exposing six to eight weeks-old snails to continuous light for 2 h at 32 °C. […] At this point, animals with internal dark granulations and with no observable body contraction/relaxation cycles were considered dead.
Schistosomulae were monitored under a stereo microscope (SMZ1270, Nikon). Phenotypic observations were made by analyzing schistosomulae, 24 h after drug addition to assess any immediate effect and five days post-compound exposure to observe long-term impacts on both the movement and overall body shape in comparison to control animals exposed to DMSO only.

[2] = tested on: S. mansoni schistosomulae; test: Motility assay on schistosomulae (pixel displacement, relative to DMSO control); settings: for Fractional motility / activity at 1 µM: schistosomulae; for activity at 1 µM: Schistosoma mansoni, read-out: Fractional motility
Procedure: Puerto Rican strain Biomphalaria glabrata snails infected with S. mansoni were kindly provided by Dr. Fred Lewis (Biomedical Research Institute and BEI Resources, MD, USA). Schistosomulae were obtained by exposing six to eight weeks-old snails to continuous light for 2 h at 32 °C. The resulting suspension of cercaria was then mechanically transformed as described ([Lewis, 2001]) and cultured in Opti-MEM/antibiotics (Thermo Fisher Scientific, Waltham, MA) containing 100 μg/mL streptomycin and 100 units/ml penicillin supplemented with 5% fetal bovine serum (FBS; Thermo Fisher). Parasite cultures were incubated at 37 °C with 5% CO2 for at least 10 days with no apparent loss of viability. At this point, animals with internal dark granulations and with no observable body contraction/relaxation cycles were considered dead.
(§1) Schistosomulae (200/well) and adult parasites (unpaired worms) were maintained in 300 μL OPTI-MEM with 5% dialyzed FBS (without antibiotics) and exposed to compounds at 1 and 10 μM for 24 h. A kinetic assay consisting of 1, 3, 6 and 12 h incubation times was performed on selected hits by motility monitoring using a stereo microscope (SMZ1270, Nikon) for adults and an inverted microscope for schistosomulae (eclipse TE2000-U, Nikon) connected to a monochrome camera (DS-Qi2, Nikon) for image acquisition. Images were recorded at a rate of 10 frames/s for a period of 1 min and videos were analyzed using ImageJ software (version 1.41, NIH, USA). Parasite movement quantification and data analysis protocols were applied using the pixel displacement method ([Patocka et al., 2014]; [Rashid et al., 2015]) and compared to control parasites treated with DMSO. Parasites were then washed several times in Opti-MEM, 5% FBS and incubated up to an additional three days (schistosomulae) or five days (adult worms) at 37 °C, 5% CO2 and motility was recorded as described above.

S. mansoni adult worms = test: Motility assay on adult parasites (pixel displacement, relative to DMSO control); settings: 10 μM; for motility phenotype in words: adults, long-term after washout; for Fractional motility: secondary screen
Procedure: Adult parasites were collected from 40 day-old female CD1 mice (Charles River) previously inoculated by the tail infection method ([Lewis, 2001]). Six weeks post-infection, mice were sacrificed, and adult worms extracted after perfusion of in the hepatic portal vein and mesenteric venules ([Lewis, 2001]). Animal procedures were reviewed and approved by the Facility Animal Care Committee of McGill University (Protocol No. 3346) and were conducted in accordance with the guidelines of the Canadian Council on Animal Care.
as §1

[3] = secondary screen, 24h exposure, read at D1, 1 µM
[4] = secondary screen, 24h exposure, read at D1, 10 µM
[5] = secondary screen, 24h exposure, read at D5, 1 µM
[6] = secondary screen, 24h exposure, read at D5, 10 µM

Compound | Viability (%) [1] | Phenotype [1] | Fractional motility ([2]; 1h exposure, read at D1, 10 µM) | Fractional motility ([2]; 1h exposure, read at D5, 10 µM) | Fractional motility ([2]; 3h exposure, read at D1, 10 µM) | Fractional motility ([2]; 3h exposure, read at D5, 10 µM) | Fractional motility ([2]; 6h exposure, read at D1, 10 µM) | Fractional motility ([2]; 6h exposure, read at D5, 10 µM) | Fractional motility [2, 3] | Fractional motility [2, 4] | Fractional motility [2, 5] | Fractional motility [2, 6] | motility phenotype in words (S. mansoni adult worms) | Fractional motility (S. mansoni adult worms; D1, Female adult worms) | Fractional motility (S. mansoni adult worms; D1, Male adult worms) | Fractional motility (S. mansoni adult worms; D5, Female adult worms) | Fractional motility (S. mansoni adult worms; D5, Male adult worms) | also measured
COc1cc(N2CCC(N)CC2)ccc1Nc1ncc(Cl)c(-c2c[nH]c3ccccc23)n1 [AZD3463] | 42,5% | dark, granulated | 1.70 | -0.84 | 5.60 | -0.68 | 2.17 | -0.70 | 0.62 | 1.68 | 0.15 | -0.81 | Significant hypomotility | -0.12 | 0.58 | -0.93 | -0.57 | 
O=C(NC(NC(=S)Nc1ccc(F)c([N+](=O)[O-])c1)C(Cl)(Cl)Cl)C(c1ccccc1)c1ccccc1 (stereo not drawn) [CGK 733] | 62,5% | dark, granulated, some big |  |  |  |  |  |  | 0.41 | -0.71 | -0.07 | -0.90 |  | -0.10 | 0.12 | -0.83 | -0.19 | 
HO-3867 | 42,5% | dark, granulated | 1.63 | -0.56 |  | -0.41 | -0.37 | -0.0245 | 1.34 | 2.56 | 1.27 | -0.58 | Significant hypomotility | 0.32 | 0.13 | -0.89 | -0.84 | 
NS(=O)(=O)C#Cc1ccccc1 [Pifithrin-μ] | 0% | big , dark, granulated |  |  |  |  |  |  | 1.37 | 2.61 | -0.80 | -1.00 |  | -0.0347 | -0.36 | -0.90 | -0.23 | 
O=C(C1CCCCC1)N1CC(=O)N2CCc3ccccc3C2C1 (stereo not drawn) [PZQ, praziquantel] |  |  |  |  |  |  |  |  |  | -0.47 |  | -0.47 |  | -0.96 | -0.98 | -0.98 | -0.99 | activity at 1 µM ([2]; 120 h, secondary screen, 24h exposure, read at D5, 1 µM): -29%; activity at 1 µM [2, 3]: -30%
CCn1c2ccccc2c2cc(Nc3ccnc(NCCCN4CCOCC4)n3)ccc21 [EHop-016] | 80% | big, dark |  |  |  |  |  |  | 3.03 | 0.07 | 0.99 | -0.94 |  | 0.25 | 0.85 | -0.62 | -0.29 | 
CCc1ccc(OCc2ccccc2C(=O)Nc2ccc3nc(C)cc(N)c3c2)cc1 [JTC-801] | 0% | big, granulated | -0.51 |  | -0.95 | -0.09 | -0.74 | -0.71 | 3.71 | -1.00 | 1.04 | -0.99 |  | 1.22 | 4.15 |  | -0.56 | effect on viability of schistosomulae in words ([1]; 24 h incubation, five days): lethal
c1ccc(CNc2nc(NCc3ccccc3)c3ccccc3n2)cc1 [DBeQ] | 15,5% | dark, granulated | -0.96 | -0.93 | 1.19 | -0.88 | 0.41 | -0.13 | 7.69 | 6.82 | -0.29 | 4.98 | severely paralyzed adults | 0.29 | 0.29 | -0.91 | -0.65 | 
Cc1nc(C#Cc2ccnc(Cl)c2)c(C)n1-c1ccc(OC(F)(F)F)cc1 [CTEP] | 99% | big, granulated, blebbing |  |  |  |  |  |  | 0.25 | 1.01 | 0.27 | 0.27 |  | -0.44 | -0.49 | -0.35 | -0.57 | 
C#CC[C@H](c1nc2cc(Cl)ccc2c(=O)n1Nc1ccccc1)N(CCCN)C(=O)c1cccc(Cl)c1F [ARQ 621] | 13% | dark, granulated |  |  |  |  |  |  | 2.11 | 2.52 |  |  |  | -0.48 | 0.41 | -0.43 | 0.0454 | 
CC(=O)c1cc([N+](=O)[O-])c(Sc2ccc(F)cc2F)s1 [P22077] | 5% | dark, granulated | 0.71 | 0.10 | 3.24 | -0.09 | 10.22 | -0.30 | -0.36 | 2.27 | -0.61 | -0.98 | severely paralyzed adults | -0.33 | -0.12 | -0.88 | -0.79 | 
c1cc(-c2cnn3cc(-c4ccc(N5CCNCC5)cc4)cnc23)c2cccnc2c1 [LDN-212854] | 0% | dark, granulated | 9.63 | -0.87 | -0.97 | -0.97 | -0.98 | -0.92 | 3.02 | 11.26 | -0.46 | -0.80 | Significant hypomotility | 0.29 | 0.78 | -0.84 | -0.87 | motility in extended assay with reduced incubation times, in words ([2]; three-day old schistosomulae, incubation 1 h, 3 h, 6 h): significant and sustained hypomotility
N#CSc1cc(SC#N)c(N)nc1N [PR-619] | 54,5% | dark, granulated |  |  |  |  |  |  | 2.00 | 0.27 | 0.18 | -0.76 | severely paralyzed adults | 0.35 | 0.35 | -0.88 | -0.93 | hypomotility (S. mansoni adult worms; adult male and female parasites, long-term): 94.5%
